Reference: ChEMBL document CHEMBL1201862, “PubChem BioAssay data set” (2004)
The source made the active and inactive calls.

Legend:
[1] = molecular target: FAD-linked sulfhydryl oxidase ALR (Homo sapiens, UniProt P55789); test: inhibitors of human ALR sulfhydryl oxidase, dose response, biochemical, H2O2 detection, luminescence, cherry-pick (AID 493248)
[2] = molecular target: T1, RNA-binding protein pos-1 (Caenorhabditis elegans, UniProt G5EF15); test: inhibitors of POS-1/mex-3 RNA binding, dose response, biochemical, fluorescence polarization (AID 1964);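 also: purified POS-1 fused to maltose binding protein made in E. coli; potency of compounds blocking POS-1 binding to fluorescent RNA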
T1 sequence (G5EF15 whole entry): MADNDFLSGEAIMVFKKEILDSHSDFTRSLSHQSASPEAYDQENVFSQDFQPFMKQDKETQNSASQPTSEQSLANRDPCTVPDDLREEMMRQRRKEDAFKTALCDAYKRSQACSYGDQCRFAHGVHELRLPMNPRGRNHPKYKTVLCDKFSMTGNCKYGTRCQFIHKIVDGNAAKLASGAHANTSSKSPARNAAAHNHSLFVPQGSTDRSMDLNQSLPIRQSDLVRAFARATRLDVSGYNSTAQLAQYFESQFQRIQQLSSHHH

[3] = molecular target: T2, Zinc finger protein mex-5 (Caenorhabditis elegans, UniProt Q9XUB2); test: MEX-5/TCR-2 RNA interaction inhibitors, dose response, biochemical, C. elegans, fluorescence polarization (AID 1960)
T2 sequence (Q9XUB2 whole entry): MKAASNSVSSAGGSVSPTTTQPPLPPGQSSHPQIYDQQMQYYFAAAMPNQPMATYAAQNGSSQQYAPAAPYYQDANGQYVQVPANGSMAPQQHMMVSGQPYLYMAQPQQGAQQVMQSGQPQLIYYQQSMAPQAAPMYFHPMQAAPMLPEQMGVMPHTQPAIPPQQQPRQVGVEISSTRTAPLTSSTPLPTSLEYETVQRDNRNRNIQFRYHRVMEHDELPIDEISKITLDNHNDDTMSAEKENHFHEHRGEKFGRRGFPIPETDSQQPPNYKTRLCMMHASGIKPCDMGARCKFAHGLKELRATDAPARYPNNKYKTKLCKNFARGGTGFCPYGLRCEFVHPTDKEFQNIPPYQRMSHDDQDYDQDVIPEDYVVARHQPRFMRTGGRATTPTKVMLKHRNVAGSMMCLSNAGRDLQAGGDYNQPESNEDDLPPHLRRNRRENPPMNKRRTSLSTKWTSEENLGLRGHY

[4] = molecular target: T3, Calpain-2 catalytic subunit (Sus scrofa, UniProt P43367); test: pig calpain II inhibitor potency, dose response, biochemical, fluorogenic peptide substrate (AID 1420); format: functional
T3 sequence (P43367 whole entry): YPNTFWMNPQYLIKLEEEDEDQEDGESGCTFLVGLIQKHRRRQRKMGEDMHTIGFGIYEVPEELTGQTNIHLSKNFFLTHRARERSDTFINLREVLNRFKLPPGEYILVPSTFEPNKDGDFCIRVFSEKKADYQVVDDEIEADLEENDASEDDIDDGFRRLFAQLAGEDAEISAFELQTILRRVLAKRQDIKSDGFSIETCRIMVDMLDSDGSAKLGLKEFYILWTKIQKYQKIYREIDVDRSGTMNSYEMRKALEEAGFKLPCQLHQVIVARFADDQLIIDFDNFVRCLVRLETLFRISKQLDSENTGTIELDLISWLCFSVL

[5] = molecular target: T4, Polyadenylate-binding protein 1 (Homo sapiens, UniProt P11940); test: PABP1 MLLE–PAM2 interaction inhibitors, dose response, miRNA deadenylation inhibitor project, biochemical, fluorescence polarization, Cy5-PAM2 peptide, secondary (AID 602260); format: functional; conditions: read-out: IC50_Mean
T4 sequence (P11940 whole entry): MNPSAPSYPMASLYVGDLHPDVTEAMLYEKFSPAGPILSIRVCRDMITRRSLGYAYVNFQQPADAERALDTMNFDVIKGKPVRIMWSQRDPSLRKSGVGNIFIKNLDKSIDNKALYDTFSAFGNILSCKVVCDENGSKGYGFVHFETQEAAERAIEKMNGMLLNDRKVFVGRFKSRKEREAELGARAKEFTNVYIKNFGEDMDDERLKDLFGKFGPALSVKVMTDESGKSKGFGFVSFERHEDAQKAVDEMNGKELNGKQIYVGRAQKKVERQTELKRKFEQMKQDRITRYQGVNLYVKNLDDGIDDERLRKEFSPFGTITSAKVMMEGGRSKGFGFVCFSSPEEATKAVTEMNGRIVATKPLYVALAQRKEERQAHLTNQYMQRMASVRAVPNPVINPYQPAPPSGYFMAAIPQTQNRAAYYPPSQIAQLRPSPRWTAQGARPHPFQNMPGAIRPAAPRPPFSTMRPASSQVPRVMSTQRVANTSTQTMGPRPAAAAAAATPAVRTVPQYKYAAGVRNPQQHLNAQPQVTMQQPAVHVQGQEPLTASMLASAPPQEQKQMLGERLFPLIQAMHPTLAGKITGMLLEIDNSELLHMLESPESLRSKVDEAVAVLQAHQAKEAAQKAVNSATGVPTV

[6] = molecular target: T4, Polyadenylate-binding protein 1; test: PABP1 MLLE–PAM2 binding inhibitor potency, dose response, biochemical, fluorescence polarization, FITC-PAM2 peptide (AID 602259); format: functional; conditions: read-out: IC50_Mean
[7] = molecular target: T5, Carboxy-terminal domain RNA polymerase II polypeptide A small phosphatase 1 (Homo sapiens, UniProt Q9GZU7); test: inhibitors of CTDSP1, concentration-response testing, biochemical assay, absorbance-based, actives from ultra-high-throughput screening (AID 540297); format: functional
T5 sequence (Q9GZU7 whole entry): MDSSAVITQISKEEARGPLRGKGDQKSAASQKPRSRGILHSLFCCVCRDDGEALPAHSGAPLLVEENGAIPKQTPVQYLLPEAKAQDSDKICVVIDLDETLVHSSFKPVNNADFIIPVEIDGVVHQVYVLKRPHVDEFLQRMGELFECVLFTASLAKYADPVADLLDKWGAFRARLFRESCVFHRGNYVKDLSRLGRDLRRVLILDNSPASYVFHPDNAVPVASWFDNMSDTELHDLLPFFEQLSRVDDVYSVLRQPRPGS

[8] = molecular target: Nonstructural protein 1 (Influenza A virus, UniProt Q194T2); format: functional, Influenza A virus (A/California/07/2009(H1N1))
Nonstructural protein 1, sequence (Q194T2 whole entry): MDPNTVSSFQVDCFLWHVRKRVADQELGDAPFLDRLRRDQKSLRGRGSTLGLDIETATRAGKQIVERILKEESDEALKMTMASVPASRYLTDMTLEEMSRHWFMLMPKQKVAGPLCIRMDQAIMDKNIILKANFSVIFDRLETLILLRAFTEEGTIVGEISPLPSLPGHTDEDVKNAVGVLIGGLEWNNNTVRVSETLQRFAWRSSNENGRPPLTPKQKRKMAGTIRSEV

[9] = molecular target: T6, Heat shock factor protein 1 (Mus musculus, UniProt P38532); test: HSF1 potentiators in luciferase reporter cells, confirmation, cell-based, NIH3T3, luminescence, dose retest (AID 435004); format: functional;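 also: stress induced by proteasome inhibitor MG132 added 30 min after compound; luciferase reporter driven by HSF1 response element in NIH3T3 cells; actives raise luminescence as potentiators of the MG132 stress response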
T6 sequence (P38532 whole entry): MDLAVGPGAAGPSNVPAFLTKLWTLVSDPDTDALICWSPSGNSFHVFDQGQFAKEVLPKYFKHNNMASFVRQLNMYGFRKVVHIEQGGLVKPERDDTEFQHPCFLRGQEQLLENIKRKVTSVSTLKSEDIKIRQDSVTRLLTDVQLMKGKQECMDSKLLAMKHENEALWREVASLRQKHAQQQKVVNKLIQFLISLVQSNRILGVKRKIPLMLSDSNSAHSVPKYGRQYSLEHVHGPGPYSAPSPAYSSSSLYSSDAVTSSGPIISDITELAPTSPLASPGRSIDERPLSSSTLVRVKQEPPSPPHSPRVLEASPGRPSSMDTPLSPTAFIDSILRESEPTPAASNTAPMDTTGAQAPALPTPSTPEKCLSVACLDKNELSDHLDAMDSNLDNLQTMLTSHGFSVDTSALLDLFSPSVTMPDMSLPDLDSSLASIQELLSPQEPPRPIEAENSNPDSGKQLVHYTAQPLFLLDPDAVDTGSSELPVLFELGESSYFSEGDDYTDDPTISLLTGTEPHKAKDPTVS

[10] = NIH-3T3 fibroblast cytotoxicity, dose response, cytotoxicity control, cell-based, fluorescence, Alamar Blue, secondary assay (AID 2327); format: functional;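 also: NIH-3T3 mouse fibroblasts cultured with fluconazole at 8 µg/mL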
[11] = C. albicans growth with fluconazole, confirmation, fluorescence, retest (AID 2467); format: functional, cell-based
[12] = inhibitors of clade B AD8 Env fusion, dose response, cell-based, cherry-pick (AID 652062); format: functional;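 also: luciferase signal from cell-cell fusion driven by HIV-1 clade B AD8 Env; potency is for inhibitors of fusion seen as a drop in luminescence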
[13] = molecular target: Cytochrome P450 3A4 (Homo sapiens, UniProt P08684);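 also: CYP3A4 tested as one member of a cytochrome P450 panel screen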
Cytochrome P450 3A4, sequence (P08684 whole entry): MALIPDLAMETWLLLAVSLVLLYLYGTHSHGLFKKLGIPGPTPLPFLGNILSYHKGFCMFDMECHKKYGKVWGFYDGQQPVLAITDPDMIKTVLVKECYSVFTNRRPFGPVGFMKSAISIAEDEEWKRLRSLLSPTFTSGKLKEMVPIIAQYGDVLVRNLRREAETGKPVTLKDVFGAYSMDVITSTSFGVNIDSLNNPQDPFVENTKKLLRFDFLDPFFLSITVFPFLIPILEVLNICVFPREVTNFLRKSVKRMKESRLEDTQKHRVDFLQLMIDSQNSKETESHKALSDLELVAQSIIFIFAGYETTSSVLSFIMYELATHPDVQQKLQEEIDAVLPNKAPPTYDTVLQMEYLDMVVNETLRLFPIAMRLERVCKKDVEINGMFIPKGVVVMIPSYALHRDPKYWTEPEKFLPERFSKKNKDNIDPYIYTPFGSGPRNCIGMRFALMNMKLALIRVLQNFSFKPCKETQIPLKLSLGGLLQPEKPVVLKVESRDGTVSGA

[14] = tested on: BJ; test: cytotoxicity toward BJ-TERT fibroblasts, dose response, cell-based, RAS-independent, luminescence (AID 1933); format: functional; conditions: Homo sapiens
[15] = tested on: BJ; test: cells; format: functional, cell-based; conditions: Homo sapiens
[16] = tested on: BJ; test: cytotoxicity toward BJ-TERT-LT-ST fibroblasts, dose response, cell-based, RAS-independent, luminescence (AID 1935); format: functional; conditions: Homo sapiens;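 also: BJ fibroblasts immortalized with TERT plus LT and ST oncogenes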
[17] = cytotoxicity toward DRD oncogenic fibroblasts, dose response, cell-based, non-viral oncogenic, luminescence (AID 1934); format: functional; conditions: Homo sapiens

FAD-linked sulfhydryl oxidase ALR, sequence (P55789 whole entry, the tested form may be a part): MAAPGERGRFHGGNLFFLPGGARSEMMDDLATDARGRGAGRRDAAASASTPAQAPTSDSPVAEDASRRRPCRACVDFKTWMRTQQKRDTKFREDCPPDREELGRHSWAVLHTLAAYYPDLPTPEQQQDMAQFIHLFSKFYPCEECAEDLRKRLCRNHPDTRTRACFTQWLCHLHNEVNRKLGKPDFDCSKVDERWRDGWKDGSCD

With `Cc1ccc(-c2nc(-c3ccccn3)sc2CC(=O)O)cc1` as the compound, how does the AC50 [1] read?
The AC50 was 0.226 µM (active).

Which AC50 [1] does the source give for `CCNc1ccc(S(=O)(=O)N(C)C)cc1NCC(=O)Nc1ccccc1F` here?
Its AC50 is 1.8 µM (active).

For `COc1cccc(N2C(=O)NC(=O)/C(=C/Nc3c(C)n(C)n(-c4ccccc4)c3=O)C2=O)c1`, which EC50 [2] is on record?
Its EC50 is > 300 µM (not active).

What about the EC50 [3] of the same compound?
Its EC50 is > 300 µM (not active).

With `COc1ccnc(Oc2ccc3ccccc3c2)c1C#N` as the compound, how does the IC50 [4] read?
The IC50 was > 50 µM (not active).

Which results are given for `O=c1[nH]c(CN2CCc3ccccc3C2)nc2ccccc12`?
EC50 [2]: > 300 µM (not active); EC50 [3]: > 300 µM (not active); IC50 [5]: > 66 µM (inactive); IC50 [6]: > 66 µM (inactive)

Which AC50 [1] does the source give for `COc1ccc(CSc2nc(O)cc(=O)n2CC(C)C)cc1F` here?
Its AC50 is 0.949 µM (active).

Which IC50 [4] does the source give for `COc1ccc(N2CCN(C(=O)Nc3ccc(S(=O)(=O)N(C)C)cc3)CC2)cc1` here?
Its IC50 is < 0.4 µM (not active).

Which IC50 [7] does the source give for `O=C(CSc1nnc(Nc2ccccc2F)s1)NC(=O)CN1CCCC1=O` here?
Its IC50 is 5.43 µM (active).

With `O=C(N/C(=C\c1ccco1)C(=O)N1CCCC1CO)c1ccccc1` (configuration not stated) as the compound, how does the IC50 [5] read?
Its IC50 is > 66 µM (inactive).

What about the IC50 [6] of the same compound?
The IC50 was > 66 µM (inactive).

For `O=C(Nc1nnc(-c2cccnc2)o1)c1cccc([N+](=O)[O-])c1`, which AC50 [1] is on record?
Its AC50 is 1.61 µM (active).

For `O=C(CN1C(=O)c2cccc3cccc(c23)C1=O)N1CCN(Cc2ccc3c(c2)OCO3)CC1`, which IC50 [8] is on record?
Its IC50 is > 100 µM (active).

With `Cc1noc(C)c1COc1ccc(C(=O)OCc2nnc(-c3ccc(Cl)cc3)o2)cc1` as the compound, how does the IC50 [4] read?
The IC50 was 4.47 µM (not active).

Which results are given for `Cc1ccc(NC2OC(CO)C(O)C2O)cc1[N+](=O)[O-]` (configuration not stated)?
IC50 [4]: > 50 µM (not active); EC50 [9]: > 260 µM (inactive)

For `Cc1cc(S(=O)(=O)N2CCN(c3ccccc3O)CC2)c(C)s1`, which AC50 [1] is on record?
The AC50 was 0.156 µM (active).

With `CCCCC(=O)OCC(=O)c1[nH]c(C)c(C(=O)OCC)c1C` as the compound, how does the EC50 [9] read?
Its EC50 is > 260 µM (inactive).

What does the source list for `C=CC[n+]1c(-c2ccc(C)cc2)csc1NNC(=O)Nc1ccccc1`?
EC50 [10]: > 150 µM (inconclusive); EC50 [11]: 1.27 µM (active); AC50 [12]: 9.27 µM (active); AC50 [13]: 3.55 µM (inconclusive)

Which results are given for `Cc1ccc(CCC(=O)Nc2ncc(Cc3cccc(Cl)c3Cl)s2)o1`?
EC50 [14]: 0.311 µM (active); EC50 [15]: 0.668 µM (active); EC50 [16]: 0.216 µM (inconclusive); EC50 [17]: 0.381 µM (active)

Which IC50 [7] does the source give for `O=C(N/N=C/c1ccncc1)c1ccc(NC(=O)c2cccc(Cl)c2)cc1` here?
The IC50 was 13.9 µM (active).

Which EC50 [9] does the source give for `O=C(Nc1c(C(=O)c2ccccc2)oc2ccccc12)c1cc(-c2ccccc2O)n[nH]1` here?
Its EC50 is > 260 µM (inactive).

With `COc1ccc(NC(S)=NCCc2c(C)[nH]c3ccc(OC)cc23)cc1` as the compound, how does the IC50 [4] read?
The IC50 was 30.1 µM (not active).

Which EC50 [2] does the source give for `NC(=O)c1cccc(/N=C/c2cc(Cl)cc(Cl)c2O)c1` here?
The EC50 was > 300 µM (not active).

What about the EC50 [3] of the same compound?
The EC50 was > 300 µM (not active).

With `O=C(CSc1ccc(-c2cccnc2)nn1)c1ccc([N+](=O)[O-])cc1` as the compound, how does the IC50 [5] read?
The IC50 was > 66 µM (inactive).

What about the IC50 [6] of the same compound?
The IC50 was > 66 µM (inactive).

Which AC50 [1] does the source give for `CN(C)c1ccc(CN(Cc2ccco2)C(=O)c2ccco2)cc1` here?
Its AC50 is 0.822 µM (active).
